Experimental data reported in patent US9629830B2, “EphA4 inhibitors as neuroprotective agents” (The Hong Kong University of Science and Technology, priority 2013, dated 2017).
Read-outs that look alike come from different tables or passages of the source.

Key:
[1] = Blood and brain penetration assay after single oral administration; format: in vivo, mouse; details: for half-life: C57Bl/6, mouse, po, 50 mg/kg
Protocol: Five microliters of sample was injected and eluted by the following program at the flow rate of 0.6 ml/min: 0-4.0 min, 10˜35% ACN; 4.0-4.1 min, 100% ACN; 7.0-7.1 min, 100-10% ACN, 7.1-10 min, 10% ACN. Detection of Rhy was carried out with the positive ionization mode. The ESI conditions were as follows: declustering potential 120 V, entrance potential 10 V, collision cell exit potential 12 V, collision energies 38 V, curtain gas 50 (arbitrary units), collision gas 10 (arbitrary units), ion spray voltage […], source temperature 500° C., ion source gas 1:45 (arbitrary units), ion source gas 2:60 (arbitrary units).
Male C57Bl/6 mice (16-week-old) were obtained from the Hong Kong University of Science and Technology (HKUST) Animal Care Facility and acclimatized in the laboratory a week before the study. […] The procedures in this study were approved by HKUST Animal Ethics Committee and conducted in accordance with the Code of Practice and Use of Animals for Experimental Purpose.
Plasma was obtained by centrifuging the blood at 3,800×g at 4° C. for 10 min. Mouse brains were collected after a 30-min cardiac perfusion with 0.9% saline. Whole mouse brain with the addition of 80 μL 0.9% saline was subjected to homogenization for 10 s (Precellys Minilys) at 4000 rpm with ceramic beads. […] Samples were centrifuged at 12,000×g at 4° C. for 10 min. The supernatants were transferred to a new tube and the remaining samples were subjected to another extraction. The supernatants obtained from the two extractions were pooled and evaporated to dryness. The dried samples were dissolved in 0.3 mL methanol, vortexed for 30 s followed by ultrasonication for 5 min and centrifuged at 17,900×g for 5 min. The supernatant (80 μL) was transferred into vial for UPLC-MS/MS analysis.

[2] = test system: Aβ-induced impairment of hippocampal LTP; assay: HFS-induced LTP (fEPSP slope) in acute hippocampal slices treated with Aβ; format: cell-based, mouse
Protocol: Oligomeric Aβ (Aβ) was prepared as described previously^59,60. Briefly, 0.5 mg monomeric Aβ1-42 was dissolved in 22.2 μL dry DMSO and then diluted in ice-cold phenol-red free F-12 medium to yield a final Aβ concentration of 100 μM. The Aβ solution was incubated at 4° C. for 24 h and then centrifuged at 14,000×g for 10 min. The supernatant was frozen in liquid nitrogen and stored at −20° C. for up to 1 month. Unless specified, cultured neurons or hippocampal slices were typically treated with Aβ at 500 nM.
For LTP recordings, mouse brains were immediately dissected after sacrifice and soaked in ice-cold 95% O2/5% CO2 (aCSF)^58. Brain slices (300 μm thick) were prepared using a vibrating tissue slicer (HM650V; Thermo), and soaked in oxygenated buffer for 2 h at 32° C. The hippocampal regions were resected and placed at the center of a MED-P210A probe (Panasonic International Inc) with 64 embedded recording electrodes. The slices were then perfused with Aβ at 500 nM in oxygenated aCSF for 2 h before LTP induction^70. For treatment with EphA4 inhibitors, the slices were pretreated with peptides or chemicals for 1 h before application of Aβ. fEPSPs were recorded using a MED64 multichannel recording system, and the data were collected from the dendritic layer of area CA1 at a sampling rate of 10 kHz. For each slice, the baseline stimulus intensity was set at the level that elicited ˜50% of the maximum fEPSP response determined according to the input-output curve. LTP was induced by 3 trains of HFS (100 Hz, 1 s, delivered 30 s apart). The magnitude of LTP was quantified as a percentage change in the fEPSP slope (10%-90%) taken during the 60-min interval after LTP induction.

[3] = mouse, single oral 50 mg/kg, rounded

CC[C@H]1CN2CC[C@]3(C(=O)Nc4ccccc43)[C@@H]2C[C@@H]1/C(=C\OC)C(=O)OC [Rhy, methyl (7β,16E,20α)-16-(methoxymethylene)-2-oxocorynoxan-17-oate]
detection in plasma and brain ([1]; 10 min after single oral 50 mg/kg): readily detected | level of Rhy as percentage of Cmax ([1]; after 3 h of administration, in both plasma and brain): 10% | half-life ([1]; male, brain, mouse, single oral 50 mg/kg, perfused brain, read-out: t1/2 in brain (converted)): 1.79 ± 0.455 h | half-life ([1]; male, brain, mouse, single oral 50 mg/kg, rounded, read-out: t1/2 in brain (converted)): ~2 h | half-life ([1]; male, plasma, mouse, single oral 50 mg/kg, read-out: t1/2 in plasma): 1.35 ± 0.201 h | Cmax ([1]; male, C57Bl/6, plasma, mouse, single oral 50 mg/kg): 583 ± 32.9 ng/mL | Tmax ([1]; male, C57Bl/6, plasma, mouse, single oral 50 mg/kg, read-out: Tmax in plasma (converted)): 0.514 h | Tmax ([1]; male, C57Bl/6, mouse, single oral 50 mg/kg, perfused brain, read-out: Tmax in brain (converted)): 0.917 h | blood-brain barrier passage ([1]; mouse, oral administration): can pass through the blood-brain barrier | Cmax in brain ([1]; mouse, single oral 50 mg/kg, perfused brain): 442.73±27.38 ng/brain | time at which brain level peaked [1, 3]: ~1 h | time at which plasma concentration peaked [1, 3]: ~0.5 h | time at which plasma concentration was reduced by 50% [1, 3]: ~1.5 h | mean fEPSP slope, last 10 min after LTP induction ([2]; Rhy 30 μM + Aβ, Aβ alone 131.1±3.9%): 174.1±9.8% | mean fEPSP slope, last 10 min after LTP induction ([2]; Rhy 30 μM alone, control 172.7±7.5%): 168.1±6.0%
